Data taken from the supplement of paper PMC11061612.

Key:
[1] = compound: Cc1cc2ncnn2cc1Nc1ncc2c(n1)n(C1CCOCC1)c(=O)n2C [AZD7648]; settings: max 10 µM
Summary of the method: (§1)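 Cancer cell lines were seeded in 1536-well plates in 7.5 μl DMEM/F12 or RPMI with 10% FBS, held 24 hours at 37°C and 5% CO2, then dosed for 72 hours (final DMSO typically 0.2%). Viability was read by CellTiter-Glo 2.0 luminescence and scaled between blank-well and DMSO-well means. The single-agent IC50 comes from dose responses fitted to a two-parameter logistic curve with a non-linear mixed effects model.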

[2] = compound: C1CN(CCC1(C(=O)N[C@@H](CCO)C2=CC=C(C=C2)Cl)N)C3=NC=NC4=C3C=CN4 [AZD5363]; settings: max 10 µM
Summary of the method: as §1

[3] = compound: CCN(CCO)CCCOc1ccc2c(Nc3cc(CC(=O)Nc4cccc(F)c4)[nH]n3)ncnc2c1 [AZD2811]; settings: max 1 µM
Summary of the method: as §1

[4] = compound: C[C@@H](Nc1cc(F)cc(F)c1)c1cc(C(=O)N(C)C)cc2c(=O)cc(N3CCOCC3)oc12 [AZD8186]; settings: max 10 µM
Summary of the method: as §1

[5] = compound: N#Cc1cnc(Nc2cc(NC[C@H]3CNCCO3)c(C(F)(F)F)cn2)cn1 [SRA737]; settings: max 10 µM
Summary of the method: as §1

[6] = compound: CN(C)CCCOc1ccc(-c2ccc3ncc4c(c3c2)n(C2CCOCC2)c(=O)n4C)cn1 [AZD0156]; settings: max 3 µM
Summary of the method: as §1

[7] = compound: COc1nnc2ccc(N3CCC(c4ccc(OCCN5CCN(C)C(=O)[C@H]5C)cc4)CC3)nn12 [AZD5153]; settings: max 1 µM
Summary of the method: as §1

[8] = compound: CN(CC[C@H](CSC1=CC=CC=C1)NC2=C(C=C(C=C2)S(=O)(=O)NC(=O)C3=CC=C(C=C3)N4CCC(CC4)[C@H](C5=CC=CC=C5C6=CC=C(C=C6)Cl)O)S(=O)(=O)C(F)(F)F)CCO [AZD4320]; settings: max 1 µM
Summary of the method: as §1

[9] = compound: COc1cc([C@@H]2c3cc4c(cc3[C@@H](O[C@@H]3O[C@@H]5CO[C@@H](C)O[C@H]5[C@H](O)[C@H]3O)[C@H]3COC(=O)[C@H]23)OCO4)cc(OC)c1O [Etoposide]; settings: max 10 µM
Summary of the method: as §1

[10] = compound: COc1cc2ncnc(Nc3ccc(F)c(Cl)c3)c2cc1OCCCN1CCOCC1 [Gefitinib]; settings: max 10 µM
Summary of the method: as §1

[11] = compound: O=c1[nH]cc(F)c(=O)[nH]1 [5-Fluorouracil]; settings: max 20 µM
Summary of the method: as §1

[12] = compound: COc1cccc(OCCCN)c1-c1cc(Nc2cnc(C#N)cn2)n[nH]1 [Prexasertib]; settings: max 1 µM
Summary of the method: as §1

[13] = compound: O=C(c1cc(Cc2n[nH]c(=O)c3ccccc23)ccc1F)N1CCN(C(=O)C2CC2)CC1 [Olaparib]; settings: max 10 µM
Summary of the method: as §1

[14] = compound: CCc1c2c(nc3ccc(O)cc13)-c1cc3c(c(=O)n1C2)COC(=O)[C@]3(O)CC [SN-38]; settings: max 0.3 µM
Summary of the method: as §1

[15] = compound: CC(=O)Nc1cccc(-n2c(=O)n(C3CC3)c(=O)c3c(Nc4ccc(I)cc4F)n(C)c(=O)c(C)c32)c1 [Trametinib]; settings: max 1 µM
Summary of the method: as §1

[16] = compound: Nc1ccn([C@@H]2O[C@H](CO)[C@@H](O)C2(F)F)c(=O)n1 [Gemcitabine]; settings: max 0.3 µM
Summary of the method: as §1

[17] = compound: Cc1nc(-c2cn3c(n2)-c2ccc(-c4cnn(C(C)(C)C(N)=O)c4)cc2OCC3)n(C(C)C)n1 [Taselisib]; settings: max 10 µM
Summary of the method: as §1

[18] = compound: C[C@@H](c1ccc2nccn2c1)n1nnc2ncc(-c3cnn(C)c3)nc21 [Savolitinib]; settings: max 1 µM
Summary of the method: as §1

[19] = compound: Cc1c2c(nn1C)CSCc1cc(n(C)n1)CSc1cc(c3ccccc3c1)OCCCc1c(C(=O)O)n(C)c3c-2c(Cl)ccc13 [AZD5991]; settings: max 1 µM
Summary of the method: as §1

[20] = compound: CS(=O)(=O)CCNCc1ccc(-c2ccc3ncnc(Nc4ccc(OCc5cccc(F)c5)c(Cl)c4)c3c2)o1 [Lapatinib]; settings: max 10 µM
Summary of the method: as §1

[21] = compound: CC(=O)c1c(C)c2cnc(Nc3ccc(N4CCNCC4)cn3)nc2n(C2CCCC2)c1=O [Palbociclib]; settings: max 10 µM
Summary of the method: as §1

[22] = compound: NC1(c2ccc(-c3nc4ccn5c(=O)[nH]nc5c4cc3-c3ccccc3)cc2)CCC1 [MK-2206]; settings: max 10 µM
Summary of the method: as §1

[23] = compound: CC(=O)O[C@H]1C(=O)[C@@]2(C)[C@H]([C@H](OC(=O)c3ccccc3)[C@]3(O)C[C@H](OC(=O)[C@H](O)[C@@H](NC(=O)c4ccccc4)c4ccccc4)C(C)=C1C3(C)C)[C@]1(OC(C)=O)CO[C@@H]1C[C@@H]2O [Paclitaxel]; settings: max 3 µM
Summary of the method: as §1

[24] = compound: C[C@@H]1COCCN1C2=NC(=NC(=C2)C3(CC3)[S@](=N)(=O)C)C4=C5C=CNC5=NC=C4 [AZD6738]; settings: max 10 µM
Summary of the method: as §1

[25] = compound: CC1=C(C(=CC=C1)Cl)NC(=O)C2=CN=C(S2)NC3=CC(=NC(=N3)C)N4CCN(CC4)CCO [Dasatinib]; settings: max 2 µM
Summary of the method: as §1

[26] = compound: CC1(C)CCC(CN2CCN(c3ccc(C(=O)NS(=O)(=O)c4ccc(NCC5CCOCC5)c([N+](=O)[O-])c4)c(Oc4cnc5[nH]ccc5c4)c3)CC2)=C(c2ccc(Cl)cc2)C1 [Venetoclax]; settings: max 1 µM
Summary of the method: as §1

[27] = compound: O=C(Nc1ccc2[nH]nc(-c3ccncc3)c2c1)[C@@H]1CCN(CC(=O)N2CCN(c3ccc(-c4ncccn4)cc3)CC2)C1; settings: max 5 µM
Summary of the method: as §1

[28] = compound: COc1cccc2c1C(=O)c1c(O)c3c(c(O)c1C2=O)C[C@@](O)(C(=O)CO)C[C@@H]3O[C@H]1C[C@H](N)[C@H](O)[C@H](C)O1 [Doxorubicin]; settings: max 1 µM
Summary of the method: as §1

[29] = compound: C[C@@H](Oc1cc(-c2cnn(C3CCNCC3)c2)cnc1N)c1c(Cl)ccc(F)c1Cl [Crizotinib]; settings: max 10 µM
Summary of the method: as §1

[30] = compound: CC(C)n1c(=O)n(C)c2cnc3cc(F)c(-c4ccc(OCCCN5CCCCC5)nc4)cc3c21 [AZD1390]; settings: max 0.3 µM
Summary of the method: as §1

[31] = compound: C=CCn1c(=O)c2cnc(Nc3ccc(N4CCN(C)CC4)cc3)nc2n1-c1cccc(C(C)(C)O)n1 [AZD1775]; settings: max 3 µM
Summary of the method: as §1

[32] = compound: Cn1cnc2c(F)c(Nc3ccc(Br)cc3Cl)c(C(=O)NOCCO)cc21 [Selumetinib]; settings: max 10 µM
Summary of the method: as §1

[33] = compound: CC1=CN2[C@@H](C1)C=NC3=CC(=C(C=C3C2=O)OC)OCCCCCOC4=C(C=C5C(=C4)N=C[C@@H]6CC(=CN6C5=O)C)OC [SG3199]; settings: max 0.001 µM
Summary of the method: as §1

[34] = compound: C1CC(C1)(C(=O)[O-])C(=O)[O-].N.N.[Pt+2] [Carboplatin]; settings: max 10 µM
Summary of the method: as §1

[35] = compound: COc1cc(Nc2ncc3c(n2)-c2ccc(Cl)cc2C(c2c(F)cccc2OC)=NC3)ccc1C(=O)O [Alisertib]; settings: max 10 µM
Summary of the method: as §1

Row | Cell Line | IC50, cell viability 72 h [1] | IC50, cell viability 72 h [2] | IC50, cell viability 72 h [3] | IC50, cell viability 72 h [4] | IC50, cell viability 72 h [5] | IC50, cell viability 72 h [6] | IC50, cell viability 72 h [7] | IC50, cell viability 72 h [8] | IC50, cell viability 72 h [9] | IC50, cell viability 72 h [10] | IC50, cell viability 72 h [11] | IC50, cell viability 72 h [12] | IC50, cell viability 72 h [13] | IC50, cell viability 72 h [14] | IC50, cell viability 72 h [15] | IC50, cell viability 72 h [16] | IC50, cell viability 72 h [17] | IC50, cell viability 72 h [18] | IC50, cell viability 72 h [19] | IC50, cell viability 72 h [20] | IC50, cell viability 72 h [21] | IC50, cell viability 72 h [22] | IC50, cell viability 72 h [23] | IC50, cell viability 72 h [24] | IC50, cell viability 72 h [25] | IC50, cell viability 72 h [26] | IC50, cell viability 72 h [27] | IC50, cell viability 72 h [28] | IC50, cell viability 72 h [29] | IC50, cell viability 72 h [30] | IC50, cell viability 72 h [31] | IC50, cell viability 72 h [32] | IC50, cell viability 72 h [33] | IC50, cell viability 72 h [34] | IC50, cell viability 72 h [35]
1 | ME-1 (Acute Myeloid Leukemia) | > 10 µM | > 10 µM | > 1 µM | > 10 µM | > 10 µM | > 3 µM | > 1 µM | 0.0227 µM | > 10 µM | > 10 µM | > 20 µM | 0.315 µM | > 10 µM | > 0.3 µM | > 1 µM | > 0.3 µM | > 10 µM | > 1 µM | 0.694 µM | > 10 µM | > 10 µM | > 10 µM | > 3 µM | > 10 µM | > 2 µM | 0.00788 µM | > 5 µM | > 1 µM | > 10 µM | > 0.3 µM | 1.26 µM | > 10 µM | > 0.001 µM | > 10 µM | > 10 µM
2 | NB10 (Neuroblastoma) | > 10 µM | > 10 µM | > 1 µM | > 10 µM | > 10 µM | > 3 µM | 0.664 µM | > 1 µM | 1.95 µM | > 10 µM | 18.4 µM | 0.092 µM | > 10 µM | 0.00651 µM | 0.328 µM | 0.0871 µM | 6.73 µM | > 1 µM | > 1 µM | > 10 µM | > 10 µM | > 10 µM | 0.273 µM | 5.83 µM | > 2 µM | > 1 µM | 3.88 µM | 0.528 µM | 3.74 µM | > 0.3 µM | 0.892 µM | > 10 µM | > 0.001 µM | > 10 µM | 0.0566 µM
3 | NCI-H82 (Small Cell Lung Carcinoma) | > 10 µM | 1.36 µM | 0.844 µM | > 10 µM | 5.8 µM | > 3 µM | 0.931 µM | > 1 µM | 2.45 µM | > 10 µM | 11.8 µM | 0.0182 µM | > 10 µM | 0.0227 µM | > 1 µM | 0.0328 µM | > 10 µM | > 1 µM | 0.227 µM | > 10 µM | > 10 µM | 2.69 µM | 0.00546 µM | 2.11 µM | > 2 µM | > 1 µM | > 5 µM | 0.254 µM | 3.57 µM | > 0.3 µM | 0.622 µM | > 10 µM | > 0.001 µM | > 10 µM | 1.09 µM
4 | NCI-H2085 (Non-Small Cell Lung Carcinoma) | > 10 µM | > 10 µM | > 1 µM | 3.58 µM | > 10 µM | > 3 µM | > 1 µM | > 1 µM | > 10 µM | > 10 µM | > 20 µM | 0.0673 µM | > 10 µM | > 0.3 µM | > 1 µM | > 0.3 µM | > 10 µM | > 1 µM | > 1 µM | > 10 µM | > 10 µM | > 10 µM | 0.382 µM | > 10 µM | 0.152 µM | > 1 µM | > 5 µM | > 1 µM | > 10 µM | > 0.3 µM | 3 µM | > 10 µM | > 0.001 µM | > 10 µM | 8.07 µM
5 | RO82-W-1 (Thyroid Gland Carcinoma) | > 10 µM | > 10 µM | > 1 µM | > 10 µM | > 10 µM | > 3 µM | > 1 µM | > 1 µM | > 10 µM | > 10 µM | > 20 µM | > 1 µM | > 10 µM | > 0.3 µM | > 1 µM | > 0.3 µM | > 10 µM | > 1 µM | > 1 µM | > 10 µM | > 10 µM | > 10 µM | > 3 µM | > 10 µM | > 2 µM | > 1 µM | > 5 µM | > 1 µM | > 10 µM | > 0.3 µM | > 3 µM | > 10 µM | > 0.001 µM | > 10 µM | > 10 µM
